For one assay, the target named is Heat shock protein HSP90 (Homo sapiens, UniProt P07900+P08238). The assay is described as follows: Inhibition of HSP90 in human H1299 cells assessed as degradation of Akt protein after 24 hrs by luminex assay. Format: cell-based.
Assay [1] in a line: Displacement of tritium-labeled resorcinol amide ligand from HSP90 by scintillation proximity assay. (In general: Scintillation proximity formats need no separation of bound from free tracer.)
The nature of assay [2]: Binding affinity to HSP90 by isothermal titration calorimetry assay. On the technique in general: Isothermal titration calorimetry measures the heat released or taken up as one component is titrated into another.

The term IC50 denotes the concentration at which inhibition is half-maximal. The term Ki denotes the dissociation constant of the complex between target and ligand, obtained from inhibition or displacement. A low value points to tighter binding. For the compound `COc1cc(-c2cc(C)nc(N)n2)c(Cl)cc1Cl`, the IC50 at Heat shock protein HSP90 was 10000 nM. In assay [1], this compound registered a Ki of 140 nM.

`COc1cc(-c2nc(C)nc3[nH]cc(C#N)c23)c(Cl)cc1Cl`: on Heat shock protein HSP90, the IC50 was 1000 nM.

On to `COc1cc(-c2nc(C)nc3[nH]c(C)c(C#N)c23)c(Cl)cc1Cl`, for which the IC50 on Heat shock protein HSP90 is 700 nM.

As usually defined, the Kd is the equilibrium constant for the complex coming apart. In turn, `COc1ccccc1-c1cc(C)nc(N)n1` gave a Kd in assay [2] of 3500 nM. In assay [1], this compound gave a Ki of 7900 nM.

For `CC(C)(C)OC(=O)n1cccc1-c1cc(Cl)nc(N)n1`, the IC50 on Heat shock protein HSP90 was found to be 45000 nM. In assay [1], this compound returned a Ki of 300 nM.

Regarding `Cc1cc(-c2cccn2C(=O)OC(C)(C)C)nc(N)n1`, in assay [1], the affinity corresponds to a Ki of 3700 nM.

Turning to `Cc1cc(-c2ccccc2)nc(N)n1`, the IC50 on Heat shock protein HSP90 is more than 10000 nM. In assay [1], this compound had a Ki of 22000 nM.

On to `COc1cc(Cl)ccc1-c1cc(C)nc(N)n1`, for which the IC50 on Heat shock protein HSP90 was determined as 27000 nM. For the same compound, the affinity in assay [1] corresponds to a Ki of 2700 nM.

`Cc1cc(-c2ccc(Cl)cc2Cl)nc(N)n1` had a Kd in assay [2] of 104 nM. The IC50 on Heat shock protein HSP90 came out at 10500 nM. In assay [1], this compound yielded a Ki of 350 nM.

In turn, `COc1cc(-c2cc(N)nc(C)n2)c(Cl)cc1Cl` came in with a Ki in assay [1] of 10000 nM.

In the case of `COc1cc(-c2nc(C)nc3[nH]ccc23)c(Cl)cc1Cl`, in assay [1], the affinity corresponds to a Ki of 1700 nM.

For the compound `COc1cc(-c2nc(C)nc3[nH]cc(C(C)=O)c23)c(Cl)cc1Cl`, the Ki in assay [1] is 200 nM.

In the case of `COc1cc(-c2nc(C)nc3[nH]cc(F)c23)c(Cl)cc1Cl`, in assay [1], affinity was put at a Ki of 200 nM.

Regarding `COc1cc(-c2nc(C)nc3[nH]cc(Cl)c23)c(Cl)cc1Cl`, the IC50 at Heat shock protein HSP90 worked out at 2000 nM. This compound also gave a Ki in assay [1] of 200 nM.

`COc1cc(-c2nc(C)nc3[nH]c(C)cc23)c(Cl)cc1Cl`: the Ki in assay [1] was 2000 nM.

Consider `COc1cc(-c2nc(C)nc3[nH]c(C)c(Cl)c23)c(Cl)cc1Cl`, for which, in assay [1], the affinity corresponds to a Ki of 100 nM.

For `CCc1[nH]c2nc(C)nc(-c3cc(OC)c(Cl)cc3Cl)c2c1C#N`, the IC50 at Heat shock protein HSP90 was 500 nM. Besides, affinity in assay [1] was put at a Ki of 15 nM.

Source of the values: ChEMBL document CHEMBL1777750, “Design strategies to target crystallographic waters applied to the Hsp90 molecular chaperone” (Bioorg Med Chem Lett, 2011).
